# Data: patent publication US7678781B2, “11-phosphorous steroid derivatives useful as progesterone receptor modulators” (Janssen Pharmaceutica N.V., priority 2006, dated 2010)
# What was measured:
# [1] = tested on: T47D human breast cancer cells; experiment: Alkaline phosphatase assay in human breast cancer cell line T47D; assay type: cell-based; conditions: 24 h, read-out: T47D IC50 (nM)
# Experimental: Alkaline Phosphatase Assay in Human Breast Cancer Cell Line T47D
# T47D human breast cancer cells were grown in RPMI medium without phenol red (Invitrogen) containing 10% (v/v) heat-inactivated fetal bovine serum (FBS; Hyclone), 1% (v/v) penicillin-streptomycin (Invitrogen), 1% (w/v) glutamine (Invitrogen), and […] insulin (Sigma). Incubation conditions were 37° C. in a humidified 5% (v/v) carbon dioxide environment.
# The cells were plated in 96-well tissue culture plates at 10,000 cells per well in assay medium [RPMI medium without phenol red (Invitrogen) containing 5% (v/v) charcoal-treated FBS (Hyclone) and 1% (v/v) penicillin-streptomycin (Invitrogen)]. Two days later, the medium was decanted and test compound or control were added at a final concentration of 0.1% (v/v) dimethyl sulfoxide in fresh assay medium. Twenty-four hours later, an alkaline phosphatase assay was performed using a SEAP kit (BD Biosciences Clontech, Palo Alto, Calif.). Briefly, the medium was decanted and the cells were fixed for 30 minutes at room temperature with 5% (v/v) formalin (Sigma). The cells were washed once with room temperature Hank's buffered saline solution (Invitrogen). Equal volumes (0.05 mL) of 1× Dilution Buffer, Assay Buffer and 1:20 substrate/enhancer mixture were then added. After 1 hour incubation at room temperature in the dark, the lysate was transferred to a white 96-well plate (Dynex) and luminescence was read using a LuminoSkan Ascent (Thermo Electron, Woburn, Mass.).
# [2] = tested on: A549 Human lung carcinoma cells; experiment: Transient transfection and Steady Glo luciferase assay in A549 cells with dexamethasone challenge; assay type: cell-based; conditions: transfected A549 cells, challenged with dexamethasone (glucocorticoid agonist), 24 h
# Experimental: Transient Transfection and Steady Glo Luciferase Assay
# A549 Human lung carcinoma cells were grown in F-12K Nutrient Mixture containing 10% (v/v) fetal bovine serum (FBS; Invitrogen), 2 mM glutamine and 0.15% sodium dicarbonate(Invitrogen).
# A549 cells were split 1 to 3 in 175 cm tissue culture flask. The cells were incubated at 37° C. in CO2 incubator until the cells were 95% confluent (typically 24-30 hours).
# The following solutions were prepared in sterile tubes: (a) Solution A: 1.5 μg/ml of DNA in 8.5 ml OPTI-MEM I Reduced Serum Medium. (GIBCO cat# 31985) and (b) Solution B: 6 μl/ml of DMRIE-C Reagent into […] OPTI-MEM I. The two solutions were combined and mixed gently, then incubated at room temperature for 40 minutes.
# The A549 cells prepared above were washed with […] of OPTI-MEM I. The medium was removed and 17 ml of the lipid-DNA complex solution was overlayed onto cells. The cells ere then incubated for 16 h at 37° C. in CO2 incubator. The DNA-containing medium was removed and 30 ml of growth medium was added. (5% Charcoal treated FBS) After 5-6 h, the cells were seeded in a 96 well plate and the cells incubated overnight at 37° C. in CO2 incubator.
# To each well was then added 5 μl of test compounds and the cells incubated at 37° C. for 10 min. […] A 150 μL sample from each well was then transferred into a DYNEX Microlitel plate and read on Top-counter.
SMILES,IC50 [1] [nM],IC50 [2] [nM]
C=C1CCO[C@]12CC[C@H]1[C@@H]3CCC4=CC(=O)CCC4=C3[C@@H](c3ccc(P(C)(C)=O)cc3)C[C@@]12C [Compound 4],3,
C[C@]12C[C@H](c3ccc(P(=O)(Oc4ccccc4)Oc4ccccc4)cc3)C3=C4CCC(=O)C=C4CC[C@H]3[C@@H]1CCC2=O [Compound 33],> 1000,217
C=C1CCO[C@]12CC[C@H]1[C@@H]3CCC4=CC(=O)CCC4=C3[C@@H](c3ccc(P(=O)(Oc4ccccc4)Oc4ccccc4)cc3)C[C@@]12C [Compound 37],3.3,34.3
